# Data taken from US20240374739A1, “BILE ACID CONJUGATE” (Curtin University, priority 2021, published 2024).
# Legend:
# OC-1 cells [1] = assay: Seahorse bioenergetics experiment (oxygen consumption rate) after cisplatin; type: cell-based
# Protocol: Mitochondrial function was analysed by measuring oxygen consumption rate (OCR) using real-time Seahorse Flux Analyser XF 96 (Seahorse Bioscience, USA) with our well-established method (Kovacevic, Bozica, et al. “Novel hydrogel comprising non-ionic copolymer with various concentrations of pharmacologically active bile acids for cellular injectable gel.” Colloids and Surfaces B: Biointerfaces (2022): 113014). Briefly, the first injection was with media without glucose, with subsequent ATP synthase inhibitor oligomycin and FCCP (carbonyl cyanide-p-trifluoromethoxy phenylhydrazone) and the final injection was complex […] inhibitors Rotenone+antimycin A 77. The result was automatically generated and analysed by the wave software. The OC-1 cells were pre-treated with cisplatin at three different concentrations (20, 30 and 40 μM) for 24 or 48 hours to induce cytotoxicity prior to the seahorse bioenergetics assays.
# Caspase 3/9 protein = assay: Caspase assay; type: cell-based; settings: OC-1 cells under stressful, toxic conditions (FIG. 31)
# Protocol: The caspase assay was carried as per manufacturer's instructions (abcam, NSW, Australia), as described below.
# • Collagen coated cover slip • Fixing agent: 4% paraformaldehyde • Permeabilization agent 0.5% of Tween 20 or trition-X 100 diluted in PBS • Blocking: 1% BSA in PBST may also be used. • PBST: 0.1% Tween 20 in PBS • Primary abs (1:500 in PBS) • Secondary abs (1:1000 in PBS) • Hoechst (Nuclear stain)
# First day: Fixation, permeabilize, blocking and add a primary antibody to the cells, as described below:
# • Start by aspirating culture medium from each well followed by fixation of the cells with 4% Using 4% paraformaldehyde in PBS pH 7.4 for 10 min at room temperature. (Add one ml in each well). • Shake a plate for a few seconds.
# 0.5% of Tween 20 or trition-X 100 diluted in PBS. […]
# • Make coverslips ready to be mounted onto microscope slides. • Take a clean slide and dispense one drop of antifade mounting medium by slowly from the pipette into the slide. • Carefully remove a coverslip from the well and allow excess wash to drip off and place the cells face down onto the slide. • Clear fingernail polish can be used to seal the coverslip and prevent it from drying out. • Visualized slide under microscope. […]
# OC-1 cells [2] = assay: Cobalt chloride hypoxia assay; type: cell-based; settings: cells pre-treated with CoCl2 at 100 μM for 24 hours, microscopic examination
# Protocol: This assay is used to determine whether an intervention can reverse hypoxic-induced cell death brought about by cobalt chloride. For this assay, cells are pre-treated with CoCl2 at 100 μM for 24 hours, followed by microscopic examination of cell morphology and viability.
# [3] = tested on: Neurodegenerated cells (perinatal tissue derived human stem cell model for Parkinson's disease); assay: Mitochondrial membrane potential by TMRE assay, Parkinson's disease model; type: cell-based; settings: PD model; probucol 20 μM, SPQ 10 μM, HA-1 10 μM, L-Dopa 50 μM, 24 hours
# Protocol: (§1) Perinatal tissue derived human stem cell model for Parkinson's disease (PD) was prepared using proprietary protocols to test the effect of new drug entities. Drug treatment was for 24 hours in all the assays.
# Dysfunctional mitochondria and alterations in the mitochondrial membrane potential promote neurodegeneration seen in Parkinson's disease. For assessing the changes in mitochondrial membrane potential, we used TMRE (tetramethylrhodamine ethyl ester) to quantify the changes in live cells by fluorimetry.
# (§2) Neurodegenerated cells were incubated with probucol (20 μM), SPQ (10 μM), HA-1 (10 μM) and L-Dopa (50 μM) for 24 hours (p<0.05; *p<0.05, **p<0.001, ***p<0.0001, ns=non-significant, n=3).
# [4] = tested on: Neurodegenerated cells (Parkinson's disease model); assay: Adenosine triphosphate (ATP) assay, Parkinson's disease model; type: cell-based, human; settings: PD model; probucol 20 μM, SPQ 10 μM, HA-1 10 μM, L-Dopa 50 μM, 24 hours
# Protocol: as §1
# Impaired energy metabolism and reduced ATP levels are common features of PD. Using the stem cell derived PD model, we measured ATP levels in drug treated (probucol, SPQ and HA-1 and L-Dopa) cells and compared with neurodegenerated (ND) cells.
# as §2
# [5] = tested on: Neurodegenerated cells (Parkinson's disease model); assay: Gene expression analysis by qRT-PCR for neuronal, dopaminergic and PD associated markers; type: cell-based, human; settings: 24 hours drug treatment
# Protocol: as §1
# Gene expression levels of mature neuronal marker (Synapsin I), dopaminergic markers (Nuclear receptor related 1 (Nurr1), Dopamine transporter (DAT) and Tyrosine hydroxylase (TH)), and PD associated marker (α-synuclein) were analysed to determine the effect of probucol, SPQ, HA-1 and L-Dopa.
# (A) Synapsin I, (B) Nurr1, (C) DAT, (D) TH and (E) α-synuclein. (p<0.05; *p<0.05, **p<0.001, ***p<0.0001, n=3).
# [6] = tested on: Neurodegenerated cells (Parkinson's disease model); assay: Immunocytochemical localization of PD specific and neuronal markers; type: cell-based, human; settings: fluorescence micrographs
# Protocol: as §1
# For further confirmation and protein localization of neuronal, dopaminergic and PD specific neurodegenerative markers, we performed immunolocalization for synapsin I, Nurr1, TH and α-synuclein respectively.
# Fluorescence micrographs of synapsin 1 positive neuronal cells were obtained and the effects of probucol, SPQ and HA-1 on neurodegeneration model with L-Dopa as positive control were compared.
# Fluorescence micrographs of Nurr1 positive dopaminergic neuronal cells were obtained and the effects of probucol, SPQ and HA-1 on neurodegeneration model with L-Dopa as positive control were compared.
# Fluorescence micrographs of TH positive dopaminergic neuronal cells were obtained and the effects of probucol, SPQ and HA-1 on neurodegeneration model with L-Dopa as positive control were compared.
# Fluorescence micrographs of α-synuclein immunolocalization were obtained and the effects of probucol, SPQ and HA-1 on neurodegeneration model with L-Dopa as positive control were compared.
# [7] = tested on: Neurodegenerated cells (Parkinson's disease model); assay: ROS assay, Parkinson's disease model; type: cell-based, human; settings: PD model
# Protocol: as §1
# (§3) Increase in oxidative stress associated with accumulation of α-synuclein plays a central role in disease progression. Nitric oxide enhances the aggregation of α-synuclein and accelerates disease progression. Increased oxidative stress and nitric oxide levels lead to apoptosis and evoke cytotoxic effects on neurons.
# [8] = tested on: Neurodegenerated cells (Parkinson's disease model); assay: Greiss (nitric oxide) assay, Parkinson's disease model; type: cell-based, human; settings: PD model
# Protocol: as §1, §3
# [9] = tested on: Neurodegenerated cells (Parkinson's disease model); assay: Glutathione peroxidase / GSH activity, Parkinson's disease model; type: cell-based, human; settings: PD model; vs neurodegeneration
# Protocol: as §1
# Parkinson's disease-related increase in oxidative stress is associated with mitochondrial dysfunction and subsequent decrease in the levels of brain antioxidant glutathione (GSH).
# (Statistical analysis: Results are expressed in mean±SD. One-way ANOVA followed by Dunnett's post hoc test was performed to compare all columns vs neurodegeneration (p<0.05; *p<0.05, **p<0.001, ***p<0.0001, ns=non-significant, n=3).)
# [10] = tested on: Neurodegenerated cells (perinatal tissue derived human stem cell model for Alzheimer's disease); assay: Lactate dehydrogenase (LDH) assay, in vitro model of Alzheimer's disease; type: cell-based; settings: probucol 20 μM, SPQ 10 μM, HA-1 10 μM, rivastigmine 2 μM, 24 hours; compared to ND cells
# Protocol: (§4) Perinatal tissue derived human stem cell model for Alzheimer's disease (AD) was prepared using proprietary protocols to test the effect of new drug entities. Drug treatment was for 24 h in all the assays.
# LDH leakage is a well characterised marker of cellular membrane damage and increase in indicative of lactate deficit, is a hallmark of AD.
# [11] = tested on: Neurodegenerated cells (Alzheimer's disease model); assay: Mitochondrial membrane potential by TMRE assay, Alzheimer's disease model; type: cell-based, human; settings: AD model; probucol 20 μM, SPQ 10 μM, HA-1 10 μM, rivastigmine 2 μM, 24 hours
# Protocol: as §4
# Aβ plaques are sources of toxicity that lead to severe structural and functional abnormalities in mitochondria in Alzheimer's disease. For assessing the changes in the electrophysiology and functional changes in the mitochondrial membrane potential, we used TMRE (tetramethylrhodamine ethyl ester) for quantifying changes in mitochondrial membrane potential in live cells by fluorimetry.
# [12] = tested on: Neurodegenerated cells (Alzheimer's disease model); assay: Gene expression analysis by qRT-PCR for neuronal, cholinergic and AD associated markers; type: cell-based, human; settings: 24 h drug treatment
# Protocol: as §4
# For determining the expression of genes involved in AD specific neurodegeneration and neuronal markers, we analysed BACE and chAT (AD and cholinergic markers) and synapsin 1 and neuropilin (neuronal markers).
# [13] = tested on: Neurodegenerated cells (Alzheimer's disease model); assay: Immunocytochemical localization of AD specific and neuronal markers; type: cell-based, human; settings: fluorescence micrographs
# Protocol: as §4
# For further confirmation and protein localization of the AD specific neurodegenerative markers and neuronal markers, we performed immunolocalization for BACE1 and synapsin respectively.
# Fluorescence micrographs of BACE1 positive neuronal cells were obtained and the effects of probucol, SPQ and HA-1 on neurodegeneration model were compared. […] In the AD model, as expected BACE1 accumulation is clearly pronounced.
# In the case of synapsin 1, a disruption in expression of synapsin protein in ND cells was observed.
# [14] = tested on: Neurodegenerated cells (Alzheimer's disease model); assay: ROS (reactive oxygen species) assay, Alzheimer's disease model; type: cell-based, human; settings: AD model
# Protocol: as §4
# (§5) Increase in oxidative stress is associated with accumulation of amyloid beta seen in the AD model. Increased oxidative stress and nitric oxide levels lead to apoptosis and evoke cytotoxic effects on neurons.
# [15] = tested on: Neurodegenerated cells (Alzheimer's disease model); assay: Greiss (nitric oxide) assay, Alzheimer's disease model; type: cell-based, human; settings: AD model
# Protocol: as §4, §5
# [16] = tested on: Neurodegenerated cells (Alzheimer's disease model); assay: Glutathione peroxidase / GSH activity, Alzheimer's disease model; type: cell-based, human; settings: AD model; vs neurodegeneration
# Protocol: as §4
# Alzheimer's disease-related increase in oxidative stress is associated with decrease in the levels of brain antioxidant glutathione (GSH).
# (Statistical analysis: results are expressed in mean±SD. One-way ANOVA followed by Dunnett's post hoc test was performed to compare all columns vs neurodegeneration (p<0.05; *p<0.05, **p<0.001, ***p<0.0001, ns=non-significant, n=3).)
smiles,measurement,setting,value
"CC(=O)O[C@@H]1CC[C@@]2(C)C(C1)C[C@@H](OC(C)=O)[C@H]1[C@@H]3CC[C@H]([C@H](C)CCC(=O)Oc4c(C(C)(C)C)cc(SC(C)(C)Sc5cc(C(C)(C)C)c(O)c(C(C)(C)C)c5)cc4C(C)(C)C)[C@@]3(C)CC[C@@H]12 (stereo in doubt) [HA-2, 2,6-di-tert-butyl-4-((2-((3,5-di-tert-butyl-4-hydroxyphenyl)thio)propan-2-yl)thio)phenyl (4R)-4-[(3R,5R,7R,8R,9S,10S,13R,14S,17R)-3,7-diacetoxy-10,13-dimethyl-2,3,4,5,6,7,8,9,11,12,14,15,16,17-tetradecahydro-1H-cyclopenta[a]phenanthren-17-yl]pentanoate]",oxygen consumption rate (OCR),"OC-1 cells [1]; OC-1 cells after 24 hours exposure to cisplatin (20, 30 and 40 μM)",most potent in reversing the cisplatin-induced cytotoxicity
same,oxygen consumption rate (OCR),"OC-1 cells [1]; OC-1 cells after 48 hours exposure to cisplatin (20, 30 and 40 μM)",significantly reverse the cytotoxic effects of cisplatin
same,protection against programmed cell death (caspase-3 activation) / viable cell population,Caspase 3/9 protein,least amount of cell death
same,cell morphology,OC-1 cells [2],optimal morphology
"N[C@@H](Cc1ccc(O)c(O)c1)C(=O)O [L-Dopa, Levodopa]",mitochondrial membrane potential (TMRE),[3],maintain the mitochondrial membrane potential
same,ATP level,[4],Enhanced increase in ATP levels
same,TH gene expression (qRT-PCR),[5],clearly upregulated
same,accumulation of α-synuclein (immunolocalization),[6],least expression
same,intracellular reactive oxidative stress (ROS),[7],reduction of ROS and NO levels
same,nitric oxide level,[8],reduction of ROS and NO levels
same,glutathione (GSH) activity,[9],increase in the GSH activity
CCN(C)C(=O)Oc1cccc([C@H](C)N(C)C)c1 [rivastigmine],LDH activity / LDH release,[10],decreased significantly LDH activity
same,mitochondrial membrane potential (TMRE),[11],maintain the mitochondrial membrane potential
same,BACE1 gene expression (qRT-PCR),[12],decrease the level of beta secretase 1 (BACE1)
same,ChAT gene expression (qRT-PCR),[12],increase the level of choline acetyltransferase (ChAT)
same,accumulation of BACE1 protein (immunolocalization),[13],least expression
same,intracellular reactive oxidative stress (ROS),[14],reduction of ROS and NO levels
same,nitric oxide level,[15],reduction of ROS and NO levels
same,glutathione (GSH) activity,[16],increase in the anti-oxidant GSH activity
